What was measured:
COX-2 = assay: Western blotting of COX-2 protein in LPS-stimulated A549 cells; type: cell-based, human; details: LPS 5 µg/mL, 5 to 40 µM (FIG. 4D)
Protocol: (§1) RAW264.7 cells and A549 cells were dispensed into 6-well plates (1 × 10^6 cells/well) and cultured under conditions of 37°C and 5% CO2. After the culturing, the Raw 264.7 cells were treated with 1 µg/mL of lipopolysaccharide (LPS) and the A549 cells were treated with 5 µg/mL of lipopolysaccharide (LPS) and with 5 µM to 40 µM of gancaonin N, and the cells were cultured for 24 hours or 6 hours. Then, the cells were lysed using a lysis buffer. In addition, the left lung extracted from each mouse was lysed using RIPA buffer. SDS-PAGE electrophoresis was performed on the cell and tissue lysates to separate proteins by side, and 5% bovine serum albumin was used for culturing and for blocking antibodies against PGE2 (1:500), IL-1β (1:500), IL-6 (1:500), TNF-α (1:500), i-NOS (1:500), COX-2 (1:1000), P-ERK1/2 (1:1000), ERK1/2 (1:3000), P-p38 (1:1000), p38 (1:3000), NF-κB p65 (1:1000), Lamin B1 (1:1000), and β-actin (1: 5,000).
(§2) For the pro-inflammatory cytokines whose mRNA expression inhibition was confirmed as above, the expression level of the protein encoded by the mRNA was further checked. To determine the protein expression level, A549 cells were treated with LPS and gancaonin N as described in Examples 1 to 8, and the protein expression levels were checked.

TNF-α [1] = assay: Real-time PCR of TNF-α mRNA in LPS-stimulated A549 cells; type: cell-based, human; details: LPS 5 ug/mL, 5 to 40 µM, 24 hours, effect proportional to amount (FIG. 3A)
Protocol: (§3) A549 cells were dispensed into 6-well plates (1 × 10^6 cells/well) and cultured under conditions of 37°C and 5% CO2. After the culturing, the A549 cells were treated with of 5 ug/mL of lipopolysaccharide (LPS) and with 5 µM to 40 µM of gancaonin N, and the cells were then cultured for 24 hours. Afterwards, total RNA was isolated from each treated cell using Hybrid-RTM (GeneAll, South Korea). The isolated total RNA (500 ng) was converted to cDNA sequentially through incubation at 55°C for 60 minutes using oligo (dT) and incubation at 85°C for 5 minutes, and the cDNA was stored at 4°C until being used. In addition, real-time quantitative PCR was performed using Universal SYBR Green Master Mix (Applied Biosystems, USA), and the cDNA was amplified under conditions described below. 95°C for 15 minutes, then 95°C for 30 seconds, 59°C for 30 seconds, and 72°C for 30 seconds were repeated 40 times. […]
(§4) To investigate the inhibitory effect of gancaonin on the expression levels of pro-inflammatory cytokines, the mRNA expression levels of tumor necrosis factor-α (hereinafter referred to as TNF-α), interleukin-1 beta (hereinafter referred to as IL-1β), and interleukin 6 (hereinafter referred to as IL-6) which are all known as pro-inflammatory cytokines were measured. […]

IL-1β = assay: Western blotting of IL-1β protein in LPS-stimulated A549 cells; type: cell-based, human; details: LPS 5 µg/mL, 5 to 40 µM (FIG. 4B)
Protocol: as §1, §2

IL-6 = assay: Real-time PCR of IL-6 mRNA in LPS-stimulated A549 cells; type: cell-based, human; details: LPS 5 ug/mL, 5 to 40 µM, 24 hours, effect proportional to amount (FIG. 3C)
Protocol: as §3, §4

nitric oxide (NO) = assay: Nitric oxide (NO) measurement (Griess reagent) in LPS-stimulated RAW264.7 cells; type: cell-based, murine; details: pretreated 2 hours before LPS 1 µg/mL, 5 to 40 µM, 24 hours, as treatment concentration increased (FIG. 2A)
Protocol: Raw264.7 cells and A549 cells were dispensed into 6-well plates (6 × 10^5 cells/well) and cultured under conditions of 37°C and 5% CO2. After the culturing, the cells were treated with 1 µg/mL of lipopolysaccharide (LPS) and with 5 µM to 40 µM of gancaonin N and cultured for 24 hours, and the concentration of NO produced was determined using the cell culture supernatant. The production of NO was measured by reading the absorbance at 540 nm using Griess reagent. Then, a standard curve was drawn using […], and the result value was expressed as […].
To investigate the anti-inflammatory effect of gancaonin N, the inventors pretreated RAW264.7 cells with gancaonin N, 2 hours before stimulation with LPS, and measured the amount of NO production as described in Examples 1 to 5 above to determine change in the amount of NO production according to the concentration of gancaonin N used to treat the cells.

TNF-α [2] = assay: Western blotting of TNF-α protein in LPS-stimulated A549 cells; type: cell-based, human; details: LPS 5 µg/mL, 5 to 40 µM (FIG. 4A)
Protocol: as §1, §2

[3] = tested on: LPS-induced acute lung injury (ALI) mouse model; assay: Lung wet/dry ratio measurement (pulmonary edema), LPS-induced acute lung injury mouse model; type: in vivo, BALB/c mice; details: mice, 10 mg/kg or 30 mg/kg intraperitoneally, LPS-induced ALI (FIG. 7)
Protocol: 25 6-week-old female BALB/c mice having a weight of 18g to 20 g were purchased from BioLink (DBL CO., Eumseong, Chungcheongbuk-do, Korea), and reared in the animal laboratory of KyungHee University. To establish an LPS-induced acute lung injury model, all the mice were divided into five groups each group of which consisted of 5 mice, and the five groups were referred to as control, vehicle (only LPS treatment), gancaonin N (10 mg/kg), gancaonin N (30 mg/kg), and dexamethasone (3 mg/kg). Gancaonin N was intraperitoneally injected at a dose of 10 mg/kg or 30 mg/kg, and dexamethasone was intraperitoneally injected at a dose of 3 mg/kg as a positive control group. In addition, the control and vehicle groups were intraperitoneally injected with 4% DMSO in which gancaonin N was dissolved. […]
To determine the severity of pulmonary edema, the wet weight of the right upper lung was measured, the tissue was dried 60°C for 72 hours, and the dry weight was measured. Afterwards, the W/D ratio was calculated.
The mouse models prepared as described in Examples 1 to 3 were treated with LPS to induce acute lung injury (ALI), and then the anti-inflammatory effect of gancaonin N was specifically evaluated for the mice of five groups (control, vehicle (only LPS), gancaonin N (10 mg/kg), gancaonin N (30 mg/kg), and dexamethasone (3 mg/kg)), […]

## COc1ccc(-c2coc3cc(O)c(CC=C(C)C)c(O)c3c2=O)c(O)c1 [gancaonin N, 5,7-dihydroxy-3-(2-hydroxy-4-methoxyphenyl)-6-(3-methylbut-2-enyl)chromen-4-one]
COX-2
  protein expression of COX-2: significantly inhibited
TNF-α [1]
  mRNA expression of TNF-α: significantly inhibited
IL-1β
  protein expression of IL-1β: significantly inhibited
IL-6
  mRNA expression of IL-6: significantly inhibited
Nitric oxide (NO)
  production of NO: significantly decreased
TNF-α [2]
  protein expression of TNF-α: significantly inhibited
[3]
  W/D ratio: significantly lowered

Source: patent EP4205737A1, “COMPOSITION FOR PREVENTION, AMELIORATION, OR TREATMENT OF INFLAMMATORY DISEASES OR IMMUNE DISEASES COMPRISING GANCAONIN N AS ACTIVE INGREDIENT” (UNIVERSITY-INDUSTRY COOPERATION GROUP OF KYUNG HEE …, priority 2020, dated 2022)
